# Assay results as given in publication PMC8080530, “Glucocorticoid receptor Thr524 phosphorylation by MINK1 induces interactions with 14-3-3 protein regulators” (The Journal of Biological Chemistry, 2021).
# Non-standard residues stand in square brackets, D forms with d. Residues, ends and D or L forms follow the SMILES beside them. pT = C[C@@H](OP(=O)(O)O)[C@H](N)C(=O)O; pS = N[C@@H](COP(=O)(O)O)C(=O)O
# Molecular target: T1, 14-3-3ζ (Homo sapiens, UniProt P63104)
# T1 construct: Full-length expression and purification of 14-3-3; made in house; host or cells: E. coli BL21 (DE3)STAR
# T1 sequence (P63104 1-245): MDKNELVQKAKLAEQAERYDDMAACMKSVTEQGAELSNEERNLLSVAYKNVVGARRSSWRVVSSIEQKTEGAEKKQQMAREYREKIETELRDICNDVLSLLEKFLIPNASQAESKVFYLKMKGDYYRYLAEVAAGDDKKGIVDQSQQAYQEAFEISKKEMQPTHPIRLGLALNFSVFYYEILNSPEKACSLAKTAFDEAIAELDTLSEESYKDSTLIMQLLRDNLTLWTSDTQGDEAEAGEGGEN
# Assay: FP assay with GR phosphorylated peptides and 14-3-3ζ
# Type: binding
# Details: FP, doubly phosphorylated 31-mer peptides, triplicates; read-out: Kd with 14-3-3ζ (values in nM)
# Procedure: After 30-min incubation at RT, the plates were read on a plate reader PHERAstar (BMG LABTECH GmbH) for FP signal using […] and standard excitation (485 nm) and emission (520 nm). Measurements were performed as triplicates. Binding data were fit to a standard Hill equation using the software Genedata Screener. The figures were made using the software GraphPad Prism 8. FP data were expressed as millipolarization (mP) units, and the dynamic range (ΔmP) was the difference of the signals from the bound peptide and free peptide. Errors are the standard error of the fit.
row,SMILES,Kd [nM]
1,CC[C@H](C)[C@H](NC(=O)[C@@H](NC(=O)[C@@H](N)CCCCN)[C@@H](C)O)C(=O)N[C@H](C(=O)N1CCC[C@H]1C(=O)N[C@@H](C)C(=O)N[C@H](C(=O)N[C@@H](CC(C)C)C(=O)N1CCC[C@H]1C(=O)N[C@@H](CCC(N)=O)C(=O)N[C@@H](CC(C)C)C(=O)N[C@H](C(=O)N1CCC[C@H]1C(=O)NCC(=O)NCC(=O)NCC(=O)NCC(=O)NCC(=O)N[C@@H](CCCNC(=N)N)C(=O)N[C@@H](CO)C(=O)N[C@@H](Cc1ccc(O)cc1)C(=O)N[C@@H](C)C(=O)N[C@@H](CCC(N)=O)C(=O)N[C@@H](CO)C(=O)N[C@@H](COP(=O)(O)O)C(=O)N[C@@H](C)C(=O)N[C@@H](CC(N)=O)C(=O)N[C@@H](CC(C)C)C(=O)N[C@@H](CC(C)C)C(=O)N[C@@H](CS)C(=O)N[C@@H](Cc1ccccc1)C(=O)O)[C@@H](C)O)[C@@H](C)OP(=O)(O)O)C(C)C [GR_R614A] (H-KTIVPA[pT]LPQLTPGGGGGRSYAQS[pS]ANLLCF-OH),220

# Same assay, conditions: read-out: PKd with 14-3-3ζ (converted)
row,SMILES,Kd [nM]
1,CC[C@H](C)[C@H](NC(=O)[C@@H](NC(=O)[C@@H](N)CCCCN)[C@@H](C)O)C(=O)N[C@H](C(=O)N[C@@H](C)C(=O)N[C@@H](C)C(=O)N[C@H](C(=O)N[C@@H](CC(C)C)C(=O)N1CCC[C@H]1C(=O)N[C@@H](CCC(N)=O)C(=O)N[C@@H](CC(C)C)C(=O)N[C@H](C(=O)N1CCC[C@H]1C(=O)NCC(=O)NCC(=O)NCC(=O)NCC(=O)NCC(=O)N[C@@H](CCCNC(=N)N)C(=O)N[C@@H](CO)C(=O)N[C@@H](Cc1ccc(O)cc1)C(=O)N[C@@H](CCCNC(=N)N)C(=O)N[C@@H](CCC(N)=O)C(=O)N[C@@H](CO)C(=O)N[C@@H](COP(=O)(O)O)C(=O)N[C@@H](C)C(=O)N[C@@H](CC(N)=O)C(=O)N[C@@H](CC(C)C)C(=O)N[C@@H](CC(C)C)C(=O)N[C@@H](CS)C(=O)N[C@@H](Cc1ccccc1)C(=O)O)[C@@H](C)O)[C@@H](C)OP(=O)(O)O)C(C)C [GR_P522A] (H-KTIVAA[pT]LPQLTPGGGGGRSYRQS[pS]ANLLCF-OH),63.1
2,CC[C@H](C)[C@H](NC(=O)[C@@H](NC(=O)[C@@H](N)CCCCN)[C@@H](C)O)C(=O)N[C@H](C(=O)N1CCC[C@H]1C(=O)N[C@@H](C)C(=O)N[C@H](C(=O)N[C@@H](CC(C)C)C(=O)N[C@@H](C)C(=O)N[C@@H](CCC(N)=O)C(=O)N[C@@H](CC(C)C)C(=O)N[C@H](C(=O)N1CCC[C@H]1C(=O)NCC(=O)NCC(=O)NCC(=O)NCC(=O)NCC(=O)N[C@@H](CCCNC(=N)N)C(=O)N[C@@H](CO)C(=O)N[C@@H](Cc1ccc(O)cc1)C(=O)N[C@@H](CCCNC(=N)N)C(=O)N[C@@H](CCC(N)=O)C(=O)N[C@@H](CO)C(=O)N[C@@H](COP(=O)(O)O)C(=O)N[C@@H](C)C(=O)N[C@@H](CC(N)=O)C(=O)N[C@@H](CC(C)C)C(=O)N[C@@H](CC(C)C)C(=O)N[C@@H](CS)C(=O)N[C@@H](Cc1ccccc1)C(=O)O)[C@@H](C)O)[C@@H](C)OP(=O)(O)O)C(C)C [GR_P526A] (H-KTIVPA[pT]LAQLTPGGGGGRSYRQS[pS]ANLLCF-OH),1260
3,CC[C@H](C)[C@H](NC(=O)[C@@H](NC(=O)[C@@H](N)CCCCN)[C@@H](C)O)C(=O)N[C@H](C(=O)N1CCC[C@H]1C(=O)N[C@@H](C)C(=O)N[C@H](C(=O)N[C@@H](CC(C)C)C(=O)N1CCC[C@H]1C(=O)N[C@@H](CCC(N)=O)C(=O)N[C@@H](CC(C)C)C(=O)N[C@H](C(=O)N[C@@H](C)C(=O)NCC(=O)NCC(=O)NCC(=O)NCC(=O)NCC(=O)N[C@@H](CCCNC(=N)N)C(=O)N[C@@H](CO)C(=O)N[C@@H](Cc1ccc(O)cc1)C(=O)N[C@@H](CCCNC(=N)N)C(=O)N[C@@H](CCC(N)=O)C(=O)N[C@@H](CO)C(=O)N[C@@H](COP(=O)(O)O)C(=O)N[C@@H](C)C(=O)N[C@@H](CC(N)=O)C(=O)N[C@@H](CC(C)C)C(=O)N[C@@H](CC(C)C)C(=O)N[C@@H](CS)C(=O)N[C@@H](Cc1ccccc1)C(=O)O)[C@@H](C)O)[C@@H](C)OP(=O)(O)O)C(C)C [GR_P530A] (H-KTIVPA[pT]LPQLTAGGGGGRSYRQS[pS]ANLLCF-OH),31.6
4,CC[C@H](C)[C@H](NC(=O)[C@@H](NC(=O)[C@@H](N)CCCCN)[C@@H](C)O)C(=O)N[C@H](C(=O)N1CCC[C@H]1C(=O)N[C@@H](C)C(=O)N[C@H](C(=O)N[C@@H](CC(C)C)C(=O)N1CCC[C@H]1C(=O)N[C@@H](C)C(=O)N[C@@H](CC(C)C)C(=O)N[C@H](C(=O)N1CCC[C@H]1C(=O)NCC(=O)NCC(=O)NCC(=O)NCC(=O)NCC(=O)N[C@@H](CCCNC(=N)N)C(=O)N[C@@H](CO)C(=O)N[C@@H](Cc1ccc(O)cc1)C(=O)N[C@@H](CCCNC(=N)N)C(=O)N[C@@H](CCC(N)=O)C(=O)N[C@@H](CO)C(=O)N[C@@H](COP(=O)(O)O)C(=O)N[C@@H](C)C(=O)N[C@@H](CC(N)=O)C(=O)N[C@@H](CC(C)C)C(=O)N[C@@H](CC(C)C)C(=O)N[C@@H](CS)C(=O)N[C@@H](Cc1ccccc1)C(=O)O)[C@@H](C)O)[C@@H](C)OP(=O)(O)O)C(C)C [GR_Q527A] (H-KTIVPA[pT]LPALTPGGGGGRSYRQS[pS]ANLLCF-OH),31.6
5,CC[C@H](C)[C@H](NC(=O)[C@@H](NC(=O)[C@@H](N)CCCCN)[C@@H](C)O)C(=O)N[C@H](C(=O)N1CCC[C@H]1C(=O)N[C@@H](C)C(=O)N[C@H](C(=O)N[C@@H](CC(C)C)C(=O)N1CCC[C@H]1C(=O)N[C@@H](CCC(N)=O)C(=O)N[C@@H](CC(C)C)C(=O)N[C@H](C(=O)N1CCC[C@H]1C(=O)NCC(=O)NCC(=O)NCC(=O)NCC(=O)NCC(=O)N[C@@H](CCCNC(=N)N)C(=O)N[C@@H](CO)C(=O)N[C@@H](Cc1ccc(O)cc1)C(=O)N[C@@H](CCCNC(=N)N)C(=O)N[C@@H](C)C(=O)N[C@@H](CO)C(=O)N[C@@H](COP(=O)(O)O)C(=O)N[C@@H](C)C(=O)N[C@@H](CC(N)=O)C(=O)N[C@@H](CC(C)C)C(=O)N[C@@H](CC(C)C)C(=O)N[C@@H](CS)C(=O)N[C@@H](Cc1ccccc1)C(=O)O)[C@@H](C)O)[C@@H](C)OP(=O)(O)O)C(C)C [GR_Q615A] (H-KTIVPA[pT]LPQLTPGGGGGRSYRAS[pS]ANLLCF-OH),39.8
6,CC[C@H](C)[C@H](NC(=O)[C@@H](NC(=O)[C@@H](N)CCCCN)[C@@H](C)O)C(=O)N[C@H](C(=O)N1CCC[C@H]1C(=O)N[C@@H](C)C(=O)N[C@H](C(=O)N[C@@H](CC(C)C)C(=O)N1CCC[C@H]1C(=O)N[C@@H](CCC(N)=O)C(=O)N[C@@H](CC(C)C)C(=O)N[C@H](C(=O)N1CCC[C@H]1C(=O)NCC(=O)NCC(=O)NCC(=O)NCC(=O)NCC(=O)N[C@@H](C)C(=O)N[C@@H](CO)C(=O)N[C@@H](Cc1ccc(O)cc1)C(=O)N[C@@H](CCCNC(=N)N)C(=O)N[C@@H](CCC(N)=O)C(=O)N[C@@H](CO)C(=O)N[C@@H](COP(=O)(O)O)C(=O)N[C@@H](C)C(=O)N[C@@H](CC(N)=O)C(=O)N[C@@H](CC(C)C)C(=O)N[C@@H](CC(C)C)C(=O)N[C@@H](CS)C(=O)N[C@@H](Cc1ccccc1)C(=O)O)[C@@H](C)O)[C@@H](C)OP(=O)(O)O)C(C)C [GR_R611A] (H-KTIVPA[pT]LPQLTPGGGGGASYRQS[pS]ANLLCF-OH),50.1
7,CC[C@H](C)[C@H](NC(=O)[C@@H](NC(=O)[C@@H](N)CCCCN)[C@@H](C)O)C(=O)N[C@H](C(=O)N1CCC[C@H]1C(=O)N[C@@H](C)C(=O)N[C@H](C(=O)N[C@@H](CC(C)C)C(=O)N1CCC[C@H]1C(=O)N[C@@H](CCC(N)=O)C(=O)N[C@@H](CC(C)C)C(=O)N[C@H](C(=O)N1CCC[C@H]1C(=O)NCC(=O)NCC(=O)NCC(=O)NCC(=O)NCC(=O)N[C@@H](CCCNC(=N)N)C(=O)N[C@@H](C)C(=O)N[C@@H](Cc1ccc(O)cc1)C(=O)N[C@@H](CCCNC(=N)N)C(=O)N[C@@H](CCC(N)=O)C(=O)N[C@@H](CO)C(=O)N[C@@H](COP(=O)(O)O)C(=O)N[C@@H](C)C(=O)N[C@@H](CC(N)=O)C(=O)N[C@@H](CC(C)C)C(=O)N[C@@H](CC(C)C)C(=O)N[C@@H](CS)C(=O)N[C@@H](Cc1ccccc1)C(=O)O)[C@@H](C)O)[C@@H](C)OP(=O)(O)O)C(C)C [GR_S612A] (H-KTIVPA[pT]LPQLTPGGGGGRAYRQS[pS]ANLLCF-OH),31.6
8,CC[C@H](C)[C@H](NC(=O)[C@@H](NC(=O)[C@@H](N)CCCCN)[C@@H](C)O)C(=O)N[C@H](C(=O)N1CCC[C@H]1C(=O)N[C@@H](C)C(=O)N[C@H](C(=O)N[C@@H](CC(C)C)C(=O)N1CCC[C@H]1C(=O)N[C@@H](CCC(N)=O)C(=O)N[C@@H](CC(C)C)C(=O)N[C@H](C(=O)N1CCC[C@H]1C(=O)NCC(=O)NCC(=O)NCC(=O)NCC(=O)NCC(=O)N[C@@H](CCCNC(=N)N)C(=O)N[C@@H](CO)C(=O)N[C@@H](Cc1ccc(O)cc1)C(=O)N[C@@H](CCCNC(=N)N)C(=O)N[C@@H](CCC(N)=O)C(=O)N[C@@H](C)C(=O)N[C@@H](COP(=O)(O)O)C(=O)N[C@@H](C)C(=O)N[C@@H](CC(N)=O)C(=O)N[C@@H](CC(C)C)C(=O)N[C@@H](CC(C)C)C(=O)N[C@@H](CS)C(=O)N[C@@H](Cc1ccccc1)C(=O)O)[C@@H](C)O)[C@@H](C)OP(=O)(O)O)C(C)C [GR_S616A] (H-KTIVPA[pT]LPQLTPGGGGGRSYRQA[pS]ANLLCF-OH),63.1
